Measurements as given in patent publication US20030022820A1, “IN VIVO ACTIVATION OF TUMOR-SPECIFIC CYTOTOXIC T CELLS” (priority 1995, published 2003).

Target: A2.1/K^b on EA2 target cells (UniProt P01901+P04439, D140Y/D185E/D98H/E176V/G131W/I119V/I121R/I166T/N151K/N90K/Q86G/Q94H/R138H/R169H)
Format: binding, chimeric human-mouse

| Sequence | binding to A2.1/K^b (percent specific lysis of EA2/K^b targets, FIG. 1), in words | inhibition of binding of the influenza A-derived peptide to A2.1/K^b (FIG. 5), in words |
| --- | --- | --- |
| ILKEPVHGV [HIV-1 RT: 476-484, reference compound] | efficiently bound to A2.1/K^b | – |
| ILLVVVLGV [Peptide H9] | – | highest efficiency |
